Assay results as given in patent publication US20260317329A1, “DRUG LINKERS AND ANTIBODY CONJUGATES THEREOF” (Ambrx, Inc., priority 2022, published 2026).

Columns and labels:
Format in all cases: cell-based
[1] = tested on: NCI-H929 (CD70 negative) cells; assay: In vitro cytotoxicity in CD70 negative NCI-H929 cells (CellTiter-Glo 2.0, 4 days); conditions: Homo sapiens, 96 h; for Emax at 0.025 µM: maximal killing at 25 nM
Description: (§1) Small molecule duocarmycin analogs (compounds 4, 13, 15, 17 and 38) and anti-CD70 ADCs (anti-CD70-12, anti-CD70-14, anti-CD70-16 and anti-CD70-18) were evaluated for cytotoxicity. Briefly, 786-0 (CD70 positive) cells were seeded into 96-well clear bottom white plate at 1,000 cells/well and incubated overnight in a 37° C. and 5% CO2 incubator. NCI-H929 (CD70 negative) cells were seeded 30,000 cells/well just before the time of treatment of test articles. The serially diluted small molecule drugs or anti-CD70 ADCs were added to the wells and the plates were incubated for 4 days in a 37° C. and 5% CO2 incubator. At the end of incubation, CellTiter-Glo2.0 Reagent (Promega, Madison, WI) was added to the room temperature equilibrated plates and luminescence was measured in a SpectraMax M5E plate reader. The relative viability was calculated as a percentage of untreated cells. The half-maximal inhibitory concentration (IC50) was determined by a nonlinear 4-parameter dose-response curve fitting using GraphPad Prism (GraphPad Software, San Diego, CA). The maximal killing (Emax) was determined by subtracting the % viability at the indicated dose from 100%.

[2] = tested on: 786-O (CD70 positive) cells; assay: In vitro cytotoxicity in CD70 positive 786-O cells (CellTiter-Glo 2.0, 4 days); conditions: Homo sapiens; for Emax at 0.025 µM: maximal killing at 25 nM
Description: as §1

[3] = tested on: HepG2 (GPC3 positive) cells; assay: In vitro cytotoxicity in GPC3 positive HepG2 cells (CellTiter-Glo 2.0, 3 days); conditions: Homo sapiens, 72 h; for Emax at 0.03 µM: maximal killing at 30 nM
Description: (§2) Anti-GPC3 ADCs were prepared via conjugation of GPC3 clone 1 mAb containing non-natural amino acid pAF with each of compounds 12, 14, 16 and 18. The corresponding ADCs (hereinafter, anti-GPC3-12, anti-GPC3-14, anti-GPC3-16 and anti-GPC3-18 respectively) and small molecule duocarmycin analogs (compounds 15 and 17) were evaluated for cytotoxicity. Briefly, HepG2 and SNU449 cells were seeded into 96-well white opaque plate at 3,000 cells/well and incubated overnight in a 37° C. and 5% CO2 incubator. The serially diluted small molecule drugs or anti-GPC3 ADCs were added to the wells and the plates were incubated for 3 days in a 37° C. and 5% CO2 incubator. At the end of incubation, CellTiter-Glo2.0 Reagent (Promega, Madison, WI) was added to the room temperature equilibrated plates and luminescence was measured in a SpectraMax M5E plate reader. The relative viability was calculated as a percentage of untreated cells. The half-maximal inhibitory concentration (IC50) was determined by a nonlinear 4-parameter dose-response curve fitting using GraphPad Prism (GraphPad Software, San Diego, CA). The maximal killing (Emax) was determined by subtracting the % viability at the indicated dose from 100%.

[4] = tested on: SNU449 (GPC3 negative) cells; assay: In vitro cytotoxicity in GPC3 negative SNU449 cells (CellTiter-Glo 2.0, 3 days); conditions: Homo sapiens, SNU-449, 72 h; for Emax at 0.03 µM: maximal killing at 30 nM
Description: as §2

[5] = 786-0, 96 h, 786-O (CD70 Positive), 4 days

SMILES	IC50 [1] [nM]	Emax at 0.025 µM [1] [%]	IC50 [2, 5] [nM]	Emax at 0.025 µM [2, 5] [%]	IC50 [3] [nM]	Emax at 0.03 µM [3] [%]	IC50 [4] [nM]	Emax at 0.03 µM [4] [%]	IC50 ([2]; 786-0 (CD70-positive), first test of benchmark free drug and ADC) [nM]
COc1cc2cc(C(=O)N3C[C@@H](CCl)c4c3cc(O)c3[nH]c(C(=O)N5CCc6ccccc65)cc43)[nH]c2c(OC)c1OC [Compound 4, (S)-(8-(chloromethyl)-4-hydroxy-6-(5,6,7-trimethoxy-1H-indole-2-carbonyl)-3,6,7,8-tetrahydropyrrolo[3,2-e]indol-2-yl)(indolin-1-yl)methanone]	0.804	99.7	0.0089	99					
COc1cc2c(cc1OC)N(C(=O)c1cc3c4c(cc(O)c3[nH]1)N(C(=O)c1cc3cc(OC)c(OC)c(OC)c3[nH]1)C[C@H]4CCl)CC2 [Compound 13]	1.79	99.5	0.0166	99.2					
COc1cc2cc(C(=O)N3C[C@@H](CCl)c4c3cc(O)c3[nH]c(C(=O)N5CCc6ccncc65)cc43)[nH]c2c(OC)c1OC [Compound 15]	9.12	82.4	0.0626	98.1	0.41	96.5	0.427	91.1	
COc1cc2cc(C(=O)N3C[C@@H](CCl)c4c3cc(O)c3[nH]c(C(=O)N5CCc6cc(OCCN7CCOCC7)ccc65)cc43)[nH]c2c(OC)c1OC [Compound 17]	2.59	97.6	0.0179	99.3	0.217	97.6	0.245	94.2	
COc1cc2cc(C(=O)N3C[C@@H](CCl)c4c3cc(O)c3ccccc43)[nH]c2c(OC)c1OC [Compound 38, reference compound]	0.791	99.5	0.561	97.4					
COC(=O)c1cc2c3c(cc(O)c2[nH]1)N(C(=O)c1cc2cc(OC)c(OC)c(OC)c2[nH]1)C[C@H]3CCl [Compound 39, (S)-seco-duocarmycin SA, reference compound]									0.065
